Reference: patent US8383622B2 (priority 2007, dated 2013)

Experiment: log k′ (degree of lipophilic character) by gradient HPLC
Format: physicochemical
Conditions: XTerra MS C18 column; acetonitrile/pH6.8 buffer gradient 5:95-95:5/20 min
Protocol: As to each compound, the measurement results of NMR or log k′ were disclosed.
log k′ is a value which means degree of the lipophilic character, and is calculated by the following formula. log k′=log(tR−t0)/t0 • tR: retention time of compound under gradient condition • t0: retention time of standard material not retained in column
XTerra MS C18 5 μm, 2.1×100 mm column (made by Waters) was used for measurement. The elution was a straight line inclination of acetonitrile/pH6.8 buffer (5:95˜95:5/20 min) at flow velocity 0.25 mL/min.

| Compound | log k′ |
| --- | --- |
| CC(=O)NCC(C)(C)/C=C/n1ncc(C(=O)N[C@H]2C3CC4CC2C[C@](OC(N)=O)(C4)C3)c1OCC(C)C [Compound I-68] | 0.85 |
| CONC(=O)C(C)(C)/C=C/n1ncc(C(=O)N[C@H]2C3CC4CC2C[C@](OC(N)=O)(C4)C3)c1OCC(C)C [Compound I-65] | 0.838 |
| CC(=O)NC(C)(C)/C=C/n1ncc(C(=O)N[C@H]2C3CCCC2C[C@@H](C(N)=O)C3)c1OCC(C)C [Compound I-42] | 0.805 |
| CC(C)COc1c(C(=O)N[C@H]2C3CC4CC2C[C@](OC(N)=O)(C4)C3)cnn1/C=C/C(C)(C)NC(=O)CC(C)C [Compound I-28] | 0.927 |
| CC(C)COc1c(C(=O)N[C@H]2C3CC4CC2C[C@](OC(N)=O)(C4)C3)cnn1/C=C/C(C)(C)C(=O)NC(N)=O [Compound I-18] | 0.866 |
| CCC(=O)NC(C)(C)/C=C/n1ncc(C(=O)N[C@H]2C3CCCC2C[C@@H](CO)C3)c1OCC(C)C [Compound I-69] | 0.866 |
| CC(C)COc1c(C(=O)N[C@H]2C3CC4CC2C[C@](OC(N)=O)(C4)C3)cnn1/C=C/C(C)(C)NC(=O)C(C)C [Compound I-27] | 0.903 |
| COC(=O)NC(C)(C)/C=C/n1ncc(C(=O)N[C@H]2C3CC4CC2C[C@](COC(N)=O)(C4)C3)c1OCC(C)C [Compound I-17] | 0.916 |
| CCC(=O)NC(C)(C)/C=C/n1ncc(C(=O)N[C@H]2C3CC4CC2C[C@](OC(N)=O)(C4)C3)c1OCC(C)C [Compound I-24] | 0.876 |
| CC(=O)NC(C)(C)CCn1ncc(C(=O)N[C@H]2C3CC4CC2C[C@](OC(N)=O)(C4)C3)c1OCC(C)C [Compound I-11] | 0.831 |
| CNC(=O)C(C)(C)/C=C/n1ncc(C(=O)N[C@H]2C3CC4CC2C[C@](OC(N)=O)(C4)C3)c1OCC(C)C [Compound I-61] | 0.841 |
| CC(=O)NC(C)(C)/C=C/n1ncc(C(=O)N[C@H]2C3CC4CC2C[C@](CO)(C4)C3)c1OC(C)C [Compound I-31] | 0.819 |
| Cc1nnc(C(C)(C)/C=C/n2ncc(C(=O)N[C@H]3C4CC5CC3C[C@](OC(N)=O)(C5)C4)c2OCC(C)C)o1 [Compound I-8] | 0.883 |
| CCONC(=O)[C@]12CC3CC(C1)[C@@H](NC(=O)c1cnn(/C=C/C(C)(C)NC(C)=O)c1OCC(C)C)C(C3)C2 [Compound I-59] | 0.833 |
| CC(C)COc1c(C(=O)N[C@H]2C3CC4CC2C[C@](O)(C4)C3)cnn1/C=C/C(C)(C)NC(=O)C1CCCC1 [Compound I-35] | 0.921 |
| COC(=O)NC(C)(C)/C=C/n1ncc(C(=O)N[C@H]2C3CCCC2C[C@@H](COC(N)=O)C3)c1OCC(C)C [Compound I-46] | 0.913 |
| COC(=O)NC(C)(C)/C=C/n1ncc(C(=O)N[C@H]2C3CC4CC2C[C@](CO)(C4)C3)c1OCC(C)C [Compound I-19] | 0.907 |
| CCCC(=O)NC(C)(C)/C=C/n1ncc(C(=O)N[C@H]2C3CC4CC2C[C@](O)(C4)C3)c1OCC(C)C [Compound I-34] | 0.877 |
| COC(=O)NC(C)(C)/C=C/n1ncc(C(=O)NC2CCCCCCCCC2)c1OCC(C)C [Compound I-3] | 1.066 |
| CC(C)COc1c(C(=O)N[C@H]2C3CC4CC2C[C@](O)(C4)C3)cnn1/C=C/C(C)(C)NC(=O)N1CCOCC1 [Compound I-81] | 0.813 |

| Compound | log k′ |
| --- | --- |
| CC(=O)NC(C)(C)/C=C/n1ncc(C(=O)N[C@H]2C3CC4CC2C[C@](OC(N)=O)(C4)C3)c1OCC(C)C [Compound I-10] | 0.798 |
| COC(=O)NC(C)(C)/C=C/n1ncc(C(=O)NC23CCC(C(N)=O)(CC2)C3)c1OCC(C)C [Compound I-13] | 0.822 |
| CC(=O)NC(C)(C)CCn1ncc(C(=O)N[C@H]2C3CC4CC2C[C@](COC(N)=O)(C4)C3)c1OCC(C)C [Compound I-57] | 0.852 |
| CC(=O)NCC(C)(C)/C=C/n1ncc(C(=O)N[C@H]2C3CC4CC2C[C@](O)(C4)C3)c1OCC(C)C [Compound I-64] | 0.814 |
| CNC(=O)OC[C@]12CC3CC(C1)[C@@H](NC(=O)c1cnn(/C=C/C(C)(C)NC(C)=O)c1OCC(C)C)C(C3)C2 [Compound I-66] | 0.886 |
| CC(=O)NC(C)(C)/C=C/n1ncc(C(=O)N[C@H]2C3CCCC2C[C@H](C(N)=O)C3)c1OCC(C)C [Compound I-5] | 0.795 |
| CC(=O)NC(C)(C)CCn1ncc(C(=O)N[C@H]2C3CC4CC2C[C@](CO)(C4)C3)c1OCC(C)C [Compound I-16] | 0.842 |
| CCC(=O)N[C@]12CC3CC(C1)[C@@H](NC(=O)c1cnn(/C=C/C(C)(C)NC(=O)OC)c1OCC(C)C)C(C3)C2 [Compound I-21] | 0.909 |
| CC(C)COc1c(C(=O)N[C@H]2C3CC4CC2C[C@](COC(N)=O)(C4)C3)cnn1/C=C/C(C)(C)C(=O)NC(N)=O [Compound I-83] | 0.87 |
| CC(C)COc1c(C(=O)N[C@H]2C3CC4CC2C[C@](O)(C4)C3)cnn1/C=C/C(C)(C)NC(=O)C1CCOCC1 [Compound I-79] | 0.818 |
| CC(=O)NC(C)(C)/C=C/n1ncc(C(=O)N[C@H]2C3CCCC2C[C@@H](CO)C3)c1OCC(C)C [Compound I-43] | 0.851 |
| CCNC(=O)C(C)(C)/C=C/n1ncc(C(=O)N[C@H]2C3CC4CC2C[C@](OC(N)=O)(C4)C3)c1OCC(C)C [Compound I-71] | 0.868 |
| COC(=O)NC(C)(C)/C=C/n1ncc(C(=O)N[C@H]2C3CC4CC2C[C@](CO)(C4)C3)c1OC(C)C [Compound I-23] | 0.864 |
| COC(=O)N[C@]12CC3CC(C1)[C@@H](NC(=O)c1cnn(/C=C/C(C)(C)NC(C)=O)c1OCC(C)C)C(C3)C2 [Compound I-54] | 0.886 |
| CC(C)COc1c(C(=O)NC2C3CC4CC2CC(OC(N)=O)(C4)C3)cnn1/C=C/C(C)(C)CO (stereo not shown) [Compound I-73] | 0.876 |
| CC(C)COc1c(C(=O)N[C@H]2C3CC4CC2C[C@](O)(C4)C3)cnn1/C=C/C(C)(C)NC(=O)CC(C)C [Compound I-26] | 0.895 |
| CC(=O)NC[C@]12CC3CC(C1)[C@@H](NC(=O)c1cnn(/C=C/C(C)(C)NC(C)=O)c1OCC(C)C)C(C3)C2 [Compound I-56] | 0.838 |
| CC(C)COc1c(C(=O)N[C@H]2C3CC4CC2C[C@](OC(N)=O)(C4)C3)cnn1/C=C/C(C)(C)NC(=O)C1CCOCC1 [Compound I-80] | 0.852 |
| CC(C)COc1c(C(=O)N[C@H]2C3CC4CC2C[C@](OC(N)=O)(C4)C3)cnn1/C=C/C(C)(C)NC(=O)C1CCCC1 [Compound I-49] | 0.945 |
| C=CCC1C2CCC(C2)C1NC(=O)c1cnn(/C=C/C(C)(C)NC(C)=O)c1OCC(C)C (stereo not shown) [Compound I-14] | 0.981 |

| Compound | log k′ |
| --- | --- |
| CC(=O)NC(C)(C)/C=C/n1ncc(C(=O)NC23CCC(C(N)=O)(CC2)C3)c1OCC(C)C [Compound I-12] | 0.763 |
| CCC(=O)NC(C)(C)/C=C/n1ncc(C(=O)N[C@H]2C3CCCC2C[C@@H](COC(N)=O)C3)c1OCC(C)C [Compound I-70] | 0.882 |
| CC(=O)NC(C)(C)/C=C/n1ncc(C(=O)N[C@H]2C3CC4CC2C[C@](C(=O)NC(N)=O)(C4)C3)c1OCC(C)C [Compound I-67] | 0.82 |
| CCC(=O)N[C@]12CC3CC(C1)[C@@H](NC(=O)c1cnn(/C=C/C(C)(C)C(N)=O)c1OCC(C)C)C(C3)C2 [Compound I-20] | 0.845 |
| CC(C)COc1c(C(=O)N[C@H]2C3CC4CC2C[C@](OC(N)=O)(C4)C3)cnn1/C=C/C(C)(C)NC(=O)COc1ccccc1 [Compound I-75] | 0.95 |
| COCC(=O)NC(C)(C)/C=C/n1ncc(C(=O)N[C@H]2C3CC4CC2C[C@](OC(N)=O)(C4)C3)c1OCC(C)C [Compound I-51] | 0.882 |
| CC(C)COc1c(C(=O)N[C@H]2C3CC4CC2C[C@](O)(C4)C3)cnn1/C=C/C(C)(C)NC(=O)C(C)C [Compound I-25] | 0.87 |
| COC(=O)NC(C)(C)CCn1ncc(C(=O)N[C@H]2C3CC4CC2C[C@](COC(N)=O)(C4)C3)c1OCC(C)C [Compound I-58] | 0.899 |
| CONC(=O)[C@]12CC3CC(C1)[C@@H](NC(=O)c1cnn(/C=C/C(C)(C)NC(C)=O)c1OCC(C)C)C(C3)C2 [Compound I-60] | 0.813 |
| COC(=O)NC(C)(C)/C=C/n1ncc(C(=O)N[C@H]2C3CCCC2C[C@@H](C#N)C3)c1OCC(C)C [Compound I-33] | 0.955 |
| CC(C)COc1c(C(=O)N[C@H]2C3CC4CC2C[C@](OC(N)=O)(C4)C3)cnn1/C=C/C(C)(C)NC(=O)CCc1ccccc1 [Compound I-76] | 0.946 |
| CONC(=O)C(C)(C)/C=C/n1ncc(C(=O)N[C@H]2C3CC4CC2C[C@](O)(C4)C3)c1OCC(C)C [Compound I-62] | 0.794 |
| CC(C)COc1c(C(=O)N[C@H]2C3CC4CC2C[C@](OC(N)=O)(C4)C3)cnn1/C=C/C(C)(C)N1CCOC1=O [Compound I-22] | 0.879 |
| CC(=O)NC(C)(C)/C=C/n1ncc(C(=O)N[C@H]2C3CCCC2C[C@@H](COC(N)=O)C3)c1OCC(C)C [Compound I-45] | 0.865 |
| CC(C)COc1c(C(=O)N[C@H]2C3CC4CC2C[C@](OC(N)=O)(C4)C3)cnn1/C=C/C(C)(C)NC(=O)CCC1CCCC1 [Compound I-50] | 0.989 |
| CC(C)COc1c(C(=O)NC2C3CC4(O)CC2CC(O)(C3)C4)cnn1/C=C/C(C)(C)C(N)=O (stereo not shown) [Compound I-82] | 0.682 |
| CC(C)COc1c(C(=O)N[C@H]2C3CC4CC2C[C@](COC(N)=O)(C4)C3)cnn1/C=C/C(C)(C)CO [Compound I-74] | 0.896 |
| CC(C)COc1c(C(=O)NC2CCCCCCCCC2)cnn1/C=C/C(C)(C)C(N)=O [Compound I-2] | 1.014 |
